{"source": "patent US6906042B2", "about": "“Micelles” (Eisai Co., Ltd., priority 2000, dated 2005)", "key": {"[1]": {"experiment": "Micelle hydrodynamic diameter of E5564 before lyophilization and after reconstitution, admixture and storage", "text": "After lyophilization the micelles were reconstituted with water diluted in an aqueous dextrose solution (Table 2). […] (Table 2)."}, "[2]": {"experiment": "E5564 micelle hydrodynamic diameter before and after simulated I.V. infusion using administration equipment (DLS)", "settings": "simulated administration conditions using representative infusion equipment", "text": "The following conditions apply to the data in Table 4: Microbore 60″ extension set with PVC free fluid path, No. V6212 (McGraw, Inc.); 3 cc syringe with Luer Lok, No. 309585 (Becton Dickenson); Injection site with Luer Lok, No. 2N1199 (Baxter); Needle, 20G 1, No. 305175 (Becton Dickenson); I.V. catheter, JELCO, No. 4050 (Johnson & Johnson Medical Inc.)."}, "[3]": {"experiment": "Micelle hydrodynamic diameter of E5564 through NaOH dissolution, lactose phosphate buffer, freeze-drying and re-hydration", "settings": "upon freeze-drying", "text": "This solution was then combined with a lactose containing phosphate buffer solution to yield a solution pH of 7-8. […] This solution was then filtered through a 0.2 μm filter to render the solution sterile in the manner conventional to pharmaceutical manufacturing. The sterile solution was then filled into vials and freeze-dried."}}, "note": "“And” between values parts separate entries of the source, which are not always exact repeats. Identical values can stand only once."}
{"compound": "CCCCCC/C=C\\CCCCCCCCCC(=O)N[C@H]1[C@H](OC[C@H]2O[C@H](OP(=O)(O)O)[C@H](NC(=O)CC(=O)CCCCCCCCCCC)[C@@H](OCCCCCCCCCC)[C@@H]2O)OC(COC)[C@@H](OP(=O)(O)O)[C@@H]1OCC[C@@H](CCCCCCC)OC", "note": "(stereo partly shown) [Compound E5564]", "values": [{"measurement": "micelle hydrodynamic diameter stability", "setting": "[1]; […], or under refrigeration", "result": "stable"}, {"measurement": "hydrodynamic diameter (nm)", "setting": "[1]; admixed with 5% dextrose solution (0.14 mg/mL), storage for 24 hours at 25° C.", "result": 8.1, "unit": "nm"}, {"measurement": "hydrodynamic diameter (nm)", "setting": "[1]; admixed with 5% dextrose solution (0.14 mg/mL), storage for 72 hours at 2-8° C.", "result": 7.7, "unit": "nm"}, {"measurement": "hydrodynamic diameter (nm)", "setting": "[1]; immediately following admixture with 5% dextrose solution (0.14 mg/mL)", "result": "7.7 nm and 6.8 nm"}, {"measurement": "hydrodynamic diameter (nm)", "setting": "[1]; immediately following reconstitution (0.5 mg/mL)", "result": "8.6 nm and 7.7 nm and 6.9 nm"}, {"measurement": "hydrodynamic diameter (nm)", "setting": "[1]; reconstituted solution (0.5 mg/mL), storage for 24 hours at 25° C.", "result": 8.2, "unit": "nm"}, {"measurement": "hydrodynamic diameter (nm)", "setting": "[1]; reconstituted solution (0.5 mg/mL), storage for 72 hours at 2-8° C.", "result": 8.3, "unit": "nm"}, {"measurement": "hydrodynamic diameter (nm)", "setting": "[1]; reconstituted solution after storage of lyophilized drug product 6 months at 2-8° C.", "result": 7.5, "unit": "nm"}, {"measurement": "hydrodynamic diameter (nm)", "setting": "[1]; reconstituted solution after storage of lyophilized drug product 6 months at 25° C./60% RH", "result": "7.3 nm and 7.2 nm"}, {"measurement": "hydrodynamic diameter (nm)", "setting": "[1]; reconstituted solution, lyophilized drug product, initial", "result": "8.6 nm and 7.7 nm and 6.9 nm"}, {"measurement": "hydrodynamic diameter (nm)", "setting": "[1]; solutions prior to lyophilization", "result": "7.6 nm and 7.4 nm and 7.9 nm"}, {"measurement": "micelle hydrodynamic diameter stability", "setting": "[2]", "result": "stable"}, {"measurement": "micelle hydrodynamic diameter stability", "setting": "[3]", "result": "stable"}]}
